{
  "source": "patent US9167822B2",
  "about": "“Antifungal compositions” (DSM IP ASSETS B.V., priority 2012, dated 2015)",
  "tested_on": "Botrytis cinerea",
  "assay": "In vitro antifungal activity, 96-well microtiter plates",
  "type": "cell-based",
  "settings": "25° C., day 3, 1.25 ppm natamycin, 6.25 ppm isopyrazam or both",
  "experimental": "Subsequently, 100 μl of a Botrytis cinerea suspension prepared in PCB medium was used to inoculated each well with 2.5×10^3 spores/ml. […] After incubation of the microtiter plates at 25° C., the in vitro antifungal activity (%) of the individual active ingredients was assessed by calculating the reduction in mould growth observed in the presence of the active ingredient in comparison to the mould growth observed in the absence of the active ingredient. The expected antifungal activity (E in %) of the active ingredient combination was calculated according to the Colby equation (Colby, 1967): […]",
  "data": [
    {"smiles": "C[C@@H]1C/C=C/C=C/C=C/C=C/[C@H](O[C@@H]2O[C@H](C)[C@@H](O)[C@H](N)[C@@H]2O)C[C@@H]2O[C@](O)(C[C@@H](O)C[C@H]3O[C@@H]3/C=C/C(=O)O1)C[C@H](O)[C@H]2C(=O)O", "note": "[Natamycin, natamycin]", "values": [
      {"measurement": "Observed antifungal activity O (%)", "value": 0, "unit": "%"}
    ]}
  ]
}
